Details: Liquid, Ebulliometric method (Recirculating still)

OCC(O)CO [glycerol]
Details | vapor or sublimation pressure [kPa]
477.25 K | 6.7
493.35 K | 13.3
505.55 K | 20
513.95 K | 26.7
520.65 K | 33.3

CO [methanol]
Details | vapor or sublimation pressure [kPa]
282.55 K | 6.7
293.75 K | 13.3
301.45 K | 20
307.35 K | 26.7
311.85 K | 33.3
315.75 K | 40
319.05 K | 46.7
322.05 K | 53.3
324.65 K | 60
327.25 K | 66.7

O [water]
Details | vapor or sublimation pressure [kPa]
311.15 K | 6.7
324.55 K | 13.3
361.85 K | 66.7

CCO [ethanol]
Details | vapor or sublimation pressure [kPa]
295.25 K | 6.7
307.45 K | 13.3
315.05 K | 20
321.05 K | 26.7
325.65 K | 33.3
329.55 K | 40
332.85 K | 46.7
335.95 K | 53.3
338.65 K | 60
341.15 K | 66.7

Source: the NIST ThermoML archive (doi:10.1016/j.jct.2012.09.032)
